Results as given in patent US7915255B2, “Metabolism-modulating agents and uses therefor” (Verva Pharmaceuticals Pty Ltd, priority 2004, dated 2011).
Entries after “also recorded” stand apart in the source; their conditions may differ.

Columns and labels:
IMPDH = assay: Insulin-stimulated 32P phosphorylation of IMPDH; format: cell-based
Method: (§1) 3T3-L1 cells, CHO.IR cells (46) and fibroblast cells derived from vimentin null (Vim^−/−) mice were cultured as described (28, 47). Human preadipocytes were cultured and differentiated as described (47). Transfections were performed using Lipofectamine. Cells were serum starved for at least 2 h before treatment with insulin (1 μM, 15 min) or pre-treatment with wortmannin (100 nM, 25 min), LY294002 (50 μM, 10 min) or C2-ceramide (100 μM, 2 h) followed by insulin or oleate. To induce lipid body accumulation cells were cultured in regular growth medium supplemented with 200 μM oleate complexed to fatty acid free bovine serum albumin (BSA) in a 6:1 molar ratio. Mycophenolic acid (MPA) was dissolved in methanol to give a stock solution of 30 mM. This was further diluted in methanol, prior to direct addition to the culture media such that the final concentration of methanol was always 0.1%. Guanosine was dissolved in DMSO to give a stock solution of 100 mM. This was further diluted in DMSO, prior to direct addition to the culture media such that the final concentration of DMSO was always 0.33%. Media was refreshed, with addition of fresh MPA, guanosine, or vehicle, every 3 days as appropriate. […] Samples were subjected to SDS-PAGE and analysed by immunoblotting and autoradiography. […]

Akt = Akt phosphorylation (immunoblotting); format: cell-based; settings: C2-ceramide; data not shown
Method: (§2) 3T3-L1 cells, CHO.IR cells (46) and fibroblast cells derived from vimentin null (Vim^−/−) mice were cultured as described (28, 47). Human preadipocytes were cultured and differentiated as described (47). Transfections were performed using Lipofectamine. Cells were serum starved for at least 2 h before treatment with insulin (1 μM, 15 min) or pre-treatment with wortmannin (100 nM, 25 min), LY294002 (50 μM, 10 min) or C2-ceramide (100 μM, 2 h) followed by insulin or oleate. To induce lipid body accumulation cells were cultured in regular growth medium supplemented with 200 μM oleate complexed to fatty acid free bovine serum albumin (BSA) in a 6:1 molar ratio. Mycophenolic acid (MPA) was dissolved in methanol to give a stock solution of 30 mM. This was further diluted in methanol, prior to direct addition to the culture media such that the final concentration of methanol was always 0.1%. Guanosine was dissolved in DMSO to give a stock solution of 100 mM. […]
For western blotting, following appropriate treatment, cells were harvested in lysis buffer (50 mM HEPES (pH 7.4), 150 mM NaCl, 1% Triton-X-100, 1 mM Na3VO4, 30 mM NaF, 10 mM Na4P2O7, 10 mM EDTA, 1 μg/ml aprotinin, 1 μg/ml leupeptin, 2 mM PMSF) and clarified by centrifugation (2,000×g for 10 min). Protein concentration was determined using the BCA assay. […]

CHO.IR cells = assay: Oleate-induced lipid accumulation, Oil red-O staining; format: cell-based, Chinese hamster; settings: LY294002 + 200 μM oleate, 5 h
Method: as §1, with “(Vim^-/-)” for “(Vim^−/−)”, “Quantification of lipids was determined by measuring Oil red-O staining at […]. Protein concentration was determined in parallel and values” for “Samples”, “normalised” for “subjected”, “protein.” for “SDS-PAGE and analysed by immunoblotting and autoradiography.”

3T3-L1 preadipocytes [1] = assay: Clonal expansion / cell number of differentiating 3T3-L1 cells (Syto60); format: cell-based, murine
Method: as §2
Essentially Syto60 staining was used to determine cell number following the manufacturers protocol. […] Finally, wells were aspirated and Syto60 staining was detected and quantitated using the LI-COR Odyssey Infrared Imaging System. DAPI was detected by fluorescence microscopy and was used to validate the Syto60 data in preliminary experiments.

3T3-L1 preadipocytes [2] = assay: Adipogenesis of 3T3-L1 preadipocytes (lipid accumulation, G3PDH activity, protein); format: cell-based, murine
Method: (§3) 3T3-L1 cells, CHO.IR cells (46) and fibroblast cells derived from vimentin null (Vim^−/−) mice were cultured as described (28, 47). Human preadipocytes were cultured and differentiated as described (47). Transfections were performed using Lipofectamine. Cells were serum starved for at least 2 h before treatment with insulin (1 μM, 15 min) or pre-treatment with wortmannin (100 nM, 25 min), LY294002 (50 μM, 10 min) or C2-ceramide (100 μM, 2 h) followed by insulin or oleate. To induce lipid body accumulation cells were cultured in regular growth medium supplemented with 200 μM oleate complexed to fatty acid free bovine serum albumin (BSA) in a 6:1 molar ratio. Mycophenolic acid (MPA) was dissolved in methanol to give a stock solution of 30 mM. This was further diluted in methanol, prior to direct addition to the culture media such that the final concentration of methanol was always 0.1%. Guanosine was dissolved in DMSO to give a stock solution of 100 mM. This was further diluted in DMSO, prior to direct addition to the culture media such that the final concentration of DMSO was always 0.33%. Media was refreshed, with addition of fresh MPA, guanosine, or vehicle, every 3 days as appropriate. Cells were washed in ice cold PBS (pH 7.4) and harvested in 1 ml of ice-cold 50 mM Tris (pH 7.5) containing 1 mM EDTA and 500 μM DTT. Cells were disrupted by sonication and centrifuged at 12000 g for 15 min at 4° C. Before assay, 5 μl of 100 mM DTT was added. The supernatant was then assayed for G3PDH activity in a final concentration of 100 mM triethanolamine-HCl (pH 7.5), 2.5 mM EDTA, 0.24 mM NADH, 50 μM DTT and 0.4 mM dihydroxyacetone phosphate (DAP). The reaction was initiated by addition of DAP and the rate of change in A340 was measured using a FLUOstar Optimem spectrophotometer (BMG labtech, Victoria Australia). Each of three culture wells was assayed in duplicate with a reagent blank containing distilled water instead of substrate (DAP). An aliquot of the supernatant was assayed to determine protein concentration.

[3] = test system: primary human preadipocytes; assay: Adipogenesis of primary human preadipocytes (lipid accumulation, G3PDH activity); format: cell-based
Method: as §3

3T3-L1 cells = assay: Western blotting of adipogenic transcription factors and IMPDH in differentiating 3T3-L1 cells; format: cell-based, murine
Method: 3T3-L1 cells, CHO.IR cells (46) and fibroblast cells derived from vimentin null (Vim^−/−) mice were cultured as described (28, 47). Human preadipocytes were cultured and differentiated as described (47). Transfections were performed using Lipofectamine. Cells were serum starved for at least 2 h before treatment with insulin (1 μM, 15 min) or pre-treatment with wortmannin (100 nM, 25 min), LY294002 (50 μM, 10 min) or C2-ceramide (100 μM, 2 h) followed by insulin or oleate. To induce lipid body accumulation cells were cultured in regular growth medium supplemented with 200 μM oleate complexed to fatty acid free bovine serum albumin (BSA) in a 6:1 molar ratio. Mycophenolic acid (MPA) was dissolved in methanol to give a stock solution of 30 mM. This was further diluted in methanol, prior to direct addition to the culture media such that the final concentration of methanol was always 0.1%. Guanosine was dissolved in DMSO to give a stock solution of 100 mM. This was further diluted in DMSO, prior to direct addition to the culture media such that the final concentration of DMSO was always 0.33%. Media was refreshed, with addition of fresh MPA, guanosine, or vehicle, every 3 days as appropriate.
For western blotting, following appropriate treatment, cells were harvested in lysis buffer (50 mM HEPES (pH 7.4), 150 mM NaCl, 1% Triton-X-100, 1 mM Na3VO4, 30 mM NaF, 10 mM Na4P2O7, 10 mM EDTA, 1 μg/ml aprotinin, 1 μg/ml leupeptin, 2 mM PMSF) and clarified by centrifugation (2,000×g for 10 min). Protein concentration was determined using the BCA assay. Equal protein was subjected to SDS-PAGE and immunoblotting and visualized by autoradiography (using enhanced chemiluminescence) or fluorescent analysis using the L1-Cor Odyssey system.

CCCCCCCCCCCCC/C=C/[C@@H](O)[C@H](CO)NC(C)=O [C2-ceramide]
insulin-stimulated IMPDH phosphorylation (IMPDH; C2-ceramide 100 μM, 2 h): without effect
reduction of insulin-stimulated Akt phosphorylation (Akt): 70%

COc1ccc2c(c1)c(C1=C(c3c[nH]c4ccccc34)C(=O)NC1=O)cn2CCCN(C)C [Gö6983]
role of the inhibited kinase (atypical PKCs; mTOR and p70S6 kinase) in insulin-stimulated IMPDH phosphorylation (IMPDH; Gö6983 1 μM, rapamycin 22 nM, data not shown): eliminated

O=c1cc(N2CCOCC2)oc2c(-c3ccccc3)cccc12 [LY294002]
reduction of oleate-induced lipid accumulation (Oil red-O) (CHO.IR cells): approximately 50%

COc1c(C)c2c(c(O)c1C/C=C(\C)CCC(=O)O)C(=O)OC2 [MPA, mycophenolic acid]
proliferation/clonal expansion (3T3-L1 preadipocytes [1]; 1 μM MPA, first 3 days of differentiation): blocks proliferation/clonal expansion; also recorded: blocked clonal expansion
lipid accumulation (determined morphologically) (3T3-L1 preadipocytes [2]; 1 μM MPA): blocks lipid accumulation; also recorded: reduced lipid accumulation; also recorded: inhibited lipid accumulation
G3PDH activity (3T3-L1 preadipocytes [2]; 1 μM MPA, day 8): decreased G3PDH activity
differentiation (3T3-L1 preadipocytes [2]; MPA for 6 days (0-6)): block differentiation completely
lipid accumulation and G3PDH activity (3T3-L1 preadipocytes [2]; MPA for the first 3 days (0-3) or the second 3 days (3-6) of differentiation): reduced lipid accumulation and G3PDH activity
IC50 (3T3-L1 preadipocytes [2]; Mus musculus, 3T3-L1, increasing MPA for the first 6 days of differentiation, harvested day 8, read-out: IC50 for inhibition of differentiation (G3PDH activity and protein levels)): 100 to 200 nM
induction of G3PDH activity ([3]; 1 μM MPA): reduced
lipid accumulation ([3]; 1 μM MPA): reduced lipid accumulation and expression of G3PDH activity
IMPDH expression (3T3-L1 cells; 1 μM MPA): promotes increased IMPDH expression; also recorded: promoted an increase in IMPDH expression
expression of adipogenic transcription factors CEBPα, CEBPβ, PPARγ (3T3-L1 cells; 1 μM MPA, harvested at day 3): blocks expression of CEBPα, but not CEBPβ or PPARγ; also recorded: induction of expression of the adipogenic transcription factors CEBPβ and PPARγ, but not CEBPα, was apparent

Nc1nc2c(ncn2[C@@H]2O[C@H](CO)[C@@H](O)[C@H]2O)c(=O)[nH]1 [guanosine]
MPA inhibition of clonal expansion/proliferation (3T3-L1 preadipocytes [1]; 60 μM guanosine co-treatment with MPA): Reversal of effects of MPA on clonal expansion; also recorded: reversed the inhibition of proliferation by MPA
lipid accumulation and G3PDH activity in MPA-treated cells (3T3-L1 preadipocytes [2]; 60 μM guanosine + 1 μM MPA): reversed the effects of MPA treatment; also recorded: restored lipid accumulation
effects of MPA treatment on lipid accumulation and G3PDH activity (3T3-L1 preadipocytes [2]; 300 μM guanosine + 1 μM MPA): still able to reverse the effects of MPA treatment to some extent
lipid accumulation and adipogenesis (3T3-L1 preadipocytes [2]; 300 μM guanosine alone): reduced adipogenesis; also recorded: inhibited lipid accumulation and adipogenesis
induction of G3PDH activity / differentiation ([3]; 60 μM guanosine): reduced induction of G3PDH activity; also recorded: inhibited differentiation
MPA-induced increase in IMPDH expression (3T3-L1 cells; co-treatment with guanosine): Reversal of MPA induced increase in IMPDH expression; also recorded: prevented by co-treatment with guanosine
